From patent EP4389210A1, “HETEROARYL COMPOUNDS FOR THE CONTROL OF INVERTEBRATE PESTS” (BASF SE, priority 2022, dated 2024)

Experiments:
Assay type in all cases: in vivo
Heliothis virescens = experiment: Tobacco budworm (Heliothis virescens) control, 96-well microtiter plate insect diet test with eggs; settings: 120 h, egg and larval mortality visually assessed after 5 days at about 28 ± 1°C, read-out: mortality in comparison with untreated controls
Method: For evaluating control of tobacco budworm (Heliothis virescens) the test unit consisted of 96-well-microtiter plates containing an insect diet and 15-25 H. virescens eggs.
The compounds were formulated using a solution containing 75% v/v water and 25% v/v DMSO. Different concentrations of formulated compounds were sprayed onto the insect diet at 10 µl, using a custom-built micro atomizer, at two replications.
After application, microtiter plates were incubated at about 28 ± 1°C and about 80 ± 5 % relative humidity for 5 days. Egg and larval mortality was then visually assessed.

Anthonomus grandis = experiment: Boll weevil (Anthonomus grandis) control, 96-well microtiter plate insect diet test with eggs; settings: 120 h, egg and larval mortality visually assessed after 5 days at about 25 ± 1°C, read-out: mortality in comparison with untreated controls
Method: For evaluating control of boll weevil (Anthonomus grandis) the test unit consisted of 96-well-microtiter plates containing an insect diet and 5-10 A. grandis eggs.
The compounds were formulated using a solution containing 75% v/v water and 25% v/v DMSO. Different concentrations of formulated compounds were sprayed onto the insect diet at 5µl, using a custom-built micro atomizer, at two replications.
After application, microtiter plates were incubated at about 25 ± 1°C and about 75 ± 5 % relative humidity for 5 days. Egg and larval mortality was then visually assessed.

Spodoptera eridania = experiment: Southern armyworm (Spodoptera eridania), 2nd instar larvae, foliar spray on lima bean plants; settings: 96 h, 2nd instar larvae on sprayed lima bean plants, assessed 4 days after treatment, read-out: mortality in comparison with untreated controls
Method: The active compounds were formulated by a Tecan liquid handler in 100% cyclohexanone as a 10,000 ppm solution supplied in tubes. The 10,000 ppm solution was serially diluted in 100% cyclohexanone to make interim solutions. These served as stock solutions for which final dilutions were made by the Tecan in 50% acetone:50% water (v/v) into 10 or 20ml glass vials. A nonionic surfactant (Kinetic®) was included in the solution at a volume of 0.01% (v/v). The vials were then inserted into an automated electrostatic sprayer equipped with an atomizing nozzle for application to plants/insects. Lima bean plants (variety Sieva) were grown 2 plants to a pot and selected for treatment at the 1st true leaf stage. Test solutions were sprayed onto the foliage by an auto-mated electrostatic plant sprayer equipped with an atomizing spray nozzle. The plants were dried in the sprayer fume hood and then removed from the sprayer. Each pot was placed into perforated plastic bags with a zip closure. Ten to 11 armyworm larvae were placed into the bag and the bags zipped closed. Test plants were maintained in a growth room at about 25°C and about 20-40% relative humidity for 4 days, avoiding direct exposure to fluorescent light (14:10 light:dark photoperiod) to prevent trapping of heat inside the bags. Mortality and reduced feeding were assessed 4 days after treatment, compared to untreated control plants.

Dichromothrips corbetti = experiment: Orchid thrips (Dichromothrips corbetti) floral-immersion test; settings: adult thrips on dipped orchid petals, recorded 72 hours after treatment, read-out: mortality in comparison with untreated controls
Method: Dichromothrips corbetti adults used for bioassay were obtained from a colony maintained continuously under laboratory conditions. For testing purposes, the test compound is diluted in a 1:1 mixture of acetone:water (vol:vol), plus Kinetic HV at a rate of 0.01% v/v.
Thrips potency of each compound was evaluated by using a floral-immersion technique. All petals of individual, intact orchid flowers were dipped into treatment solution and allowed to dry in Petri dishes. Treated petals were placed into individual re-sealable plastic along with about 20 adult thrips. All test arenas were held under continuous light and a temperature of about 28°C for duration of the assay. After 3 days, the numbers of live thrips were counted on each petal. The percent mortality was recorded 72 hours after treatment.

Aedes aegypti = experiment: whole plant or invertebrate; settings: 48 h, larval mortality visually assessed after 2 days at 28±1°C, read-out: mortality in comparison with untreated controls
Method: For evaluating control of yellow fever mosquito (Aedes aegypti) the test unit consisted of 96-well-microtiter plates containing 200µl of tap water per well and 5-15 freshly hatched A. aegypti larvae.
The active compounds were formulated using a solution containing 75% (v/v) water and 25% (v/v) DMSO. Different concentrations of formulated compounds or mixtures were sprayed onto the insect diet at 2.5µl, using a custom-built micro atomizer, at two replications.
After application, microtiter plates were incubated at 28±1°C, 80±5 % RH for 2 days. Larval mortality was then visually assessed.

CC(NC(=O)c1cc(Cl)cc(C(F)(F)F)c1)c1ncccc1-n1nccn1 (stereo not drawn) [Compound I-1]
≥ 75%: mortality at 2500 ppm (Heliothis virescens) | mortality at 2500 ppm (Anthonomus grandis) | mortality at 300 ppm (Spodoptera eridania) | mortality at 300 ppm (Dichromothrips corbetti) | mortality at 2500 ppm (Aedes aegypti)

CC(NC(=O)c1cc(Cl)cc(C(F)(F)F)c1)c1ncccc1-n1cc(C#N)cn1 (stereo not drawn) [Compound I-2]
≥ 75%: mortality at 2500 ppm (Anthonomus grandis) | mortality at 300 ppm (Spodoptera eridania) | mortality at 2500 ppm (Aedes aegypti)

CC(NC(=O)c1cc(Cl)cc(C(F)(F)F)c1)c1nc(Cl)ccc1-n1nccn1 (stereo not drawn) [Compound I-3, 3-chloro-N-[1-[6-chloro-3-(triazol-2-yl)-2-pyridyl]ethyl]-5-(trifluoromethyl)benzamide]
≥ 75%: mortality at 2500 ppm (Heliothis virescens) | mortality at 2500 ppm (Anthonomus grandis) | mortality at 300 ppm (Spodoptera eridania) | mortality at 2500 ppm (Aedes aegypti)
